In PMC6063804 (EJNMMI Research, 2018):
“And” between values parts separate entries of the source, which are not always exact repeats. Identical values can stand only once. Like-named read-outs stand apart in the source and are kept apart here.

Assays:
[1] = ex vivo rodent, cited from earlier work
[2] = system: ion channel of NMDA-R; set-up: method as in PMID 25451213; details: cited from earlier work
[3] = target: ion channel of NMDA-R; set-up: method as in PMID 25648682; details: preclinical; read-out: apparent affinity against [^3H]MK-801 (Ki); cited from earlier work
[4] = system: ion channel binding site of NMDA receptors; assay: [^18F]PK-209 brain PET, baseline versus S-ketamine infusion; format: in vivo, human; details: for V ND / k 3 / K i / % ΔKi: individual subjects S6–S10; for K i: net influx rate; for % ΔKi: percentage change from the baseline scan after ketamine
Procedure: In total, 20 PET scans were acquired on a Gemini TF-64 PET/CT scanner (Philips Medical Systems, Cleveland, OH, USA). Five subjects underwent [^18F]PK-209 test–retest (TRT) scans 31–61 days apart over a period of 211 days. Another five subjects underwent baseline and ketamine scans 13–161 days apart over a period of 258 days. At the start of each scan [^18F]PK-209 was injected as an intravenous bolus with a mean injected activity of 187 ± 7 MBq. All scans were performed between 12:00 and 15:00 h to minimize diurnal variation. Duration of daylight on each scan day was calculated to investigate seasonal changes in tracer binding. Dynamic PET data were acquired for 120 min and binned into 25 time frames (1 × 15, 3 × 5, 3 × 10, 4 × 60, 2 × 150, 2 × 300, 10 × 600 s). PET was followed by a low-dose CT (30 mAs, 120 kVp) for attenuation correction and localization. Data were reconstructed using a three-dimensional row action maximum likelihood reconstruction algorithm (3-D RAMLA). Acquired PET data were normalized and corrected for dead time, randoms, scatter, attenuation, and decay.
The (S+)-isomer of ketamine (0.5 mg · kg^−1) was dissolved in NaCl 50 mL and administered intravenously in a pseudo-steady state model with a sub-acute loading dose. First, ketamine was administered for 40 min at a rate of 0.006 mg · kg^−1 · min^−1 followed by a 130 min equilibrium phase at 0.002 mg · kg^−1 · min^−1. [^18F]PK-209 injection and start of PET were performed at 10 min into the equilibrium phase, following 0.26 mg · kg^−1 administration in the preceding 50 min.
Prior to the PET studies, structural three-dimensional coronal T1-weighted magnetic resonance images (MRI) were acquired for all subjects on a 1.5T Sonata scanner (Siemens Medical Solutions, Erlangen, Germany) with 160 coronal slices using echo time 3.97 ms, repetition time 2700 ms, flip angle 8°, and voxel size 1.0 × 1.5 × 1.0 mm^3. Subject motion was checked by visual inspection of the alignment of intrasubject PET frames, and no frames were excluded due to excessive movement. T1-weighted MRI scans were co-registered to an average of the PET frames from ~ 4–70 min p.i. using VINCI software. The co-registered MRI scans were segmented into gray matter (GM), white matter, and extra-cerebral fluid, using PVE-lab. Subsequently, 68 regions of interest (ROIs), including whole brain, were derived from the Hammers atlas and used to extract GM time-activity curves (TACs). As a last step, the TACs of 60 out of the 67 ROIs were redefined into nine volume-weighted ROIs by combining the radioactivity at each timepoint according to the equation Bq¯=∑iαi×Bqi/∑iαi , where αi is the volume (in mm^3) of region i, and Bqi the counts per mm^3 of region i. The selection of ROIs was based on the widespread NMDA-R availability in the brain: frontal, temporal, occipital, and parietal cortices; hippocampus; thalamus; insula; brainstem; dorsal striatum; and cerebellum, as well as whole brain GM from the Hammers atlas. Standardized uptake values (SUV; equalling measured activity divided by injected dose per body weight) were calculated for whole brain GM.
Using the metabolite-corrected arterial plasma input function, all GM TACs were fitted to single-tissue (1T2k), two-tissue irreversible (2T3k), and reversible (2T4k) compartmental models, both with and without an additional parameter for fractional blood volume (VB). The non-metabolite-corrected arterial whole blood curve was used as input function for VB. The optimal tracer kinetic model for describing in vivo kinetics of [^18F]PK-209 was determined according to the Akaike Information Criterion (AIC). Depending on the model preference, outcome measures were the net influx constant (Ki = K1 k3/(k2 + k3)) or the distribution volume (VT=K1/k2(1+k3/k4)) . For subsequent group level analysis (e.g., TRT variability and ketamine effects), all scans were analyzed using the same, most preferred, tracer kinetic model. […]

[5] = 2T3k_VB, single scan IF, baseline scan
[6] = 2T3k_VB, single scan IF, ketamine scan
[7] = mean ketamine versus mean baseline, single scan IF

For `CSc1ccc(Cl)c(NC(=N)N(C)c2cccc(OC[18F])c2)c1` [[^18F]PK-209, 3-(2-chloro-5-(methylthio)phenyl)-1-(3-([^18F]fluoromethoxy)phenyl)-1-methylguanidine], which “non-polar metabolite fraction in brain” value ([1]; 15 min p.i.) is on record?
The value was 18%.

What about the “non-polar metabolite fraction in brain” value ([1]; 60 min p.i.) of the same molecule?
Its value is 25%.

What about the “polar metabolites, contribution to total brain radioactivity” value ([1]; 60 min p.i.) of the same molecule?
Its value is 4%.

What about the “selectivity for the ion channel of NMDA-R over other targets” value [2] of the same molecule?
The value was “high selectivity”.

What about the K i [3] of the same molecule?
Its K i is 0.018 µM.

What about the “Mean baseline K i” value ([4]; 2T3k_VB, population IF) of the same molecule?
The value was 0.0106 min⁻¹.

And the “Mean ketamine K i” value ([4]; 2T3k_VB, population IF)?
Its value is 0.0107 min⁻¹.

What about the “Mean baseline K 1” value ([4]; 2T3k_VB, single scan IF) of the same molecule?
The value was 0.492 mL · cm^3 · min^−1.

What about the “Mean baseline K i” value ([4]; 2T3k_VB, single scan IF) of the same molecule?
Its value is 0.0129 min⁻¹.

And the “Mean baseline V ND” value ([4]; 2T3k_VB, single scan IF)?
Its value is 9.25.

And the “Mean baseline k 3” value ([4]; 2T3k_VB, single scan IF)?
The value was 0.0016 min⁻¹.

What about the “Mean ketamine K 1” value ([4]; 2T3k_VB, single scan IF) of the same molecule?
The value was 0.516 mL · cm^3 · min^−1.

And the “Mean ketamine K i” value ([4]; 2T3k_VB, single scan IF)?
Its value is 0.0128 min⁻¹.

And the “Mean ketamine V ND” value ([4]; 2T3k_VB, single scan IF)?
Its value is 9.22.

What about the “Mean ketamine k 3” value ([4]; 2T3k_VB, single scan IF) of the same molecule?
The value was 0.0015 min⁻¹.

What about the “V ND” value [4, 5] of the same molecule?
The value was 9.78 and 6.54 and 11.72 and 7.74 and 10.51.

And the “k 3” value [4, 5]?
The value was 0.0005 min⁻¹ and 0.0029 min⁻¹ and 0.0007 min⁻¹ and 0.0026 min⁻¹ and 0.0014 min⁻¹.

And the “V ND” value [4, 6]?
Its value is 9.66 and 9.75 and 10.30 and 6.56 and 9.84.

What about the “k 3” value [4, 6] of the same molecule?
The value was 0.0014 min⁻¹ and 0.0012 min⁻¹ and 0.0008 min⁻¹ and 0.0020 min⁻¹.

What about the “Mean baseline K i” value ([4]; 2T3k_VB, within-subject IF) of the same molecule?
The value was 0.0147 min⁻¹.

What about the “Mean ketamine K i” value ([4]; 2T3k_VB, within-subject IF) of the same molecule?
The value was 0.0162 min⁻¹.

What about the “mean SUV90–120” value ([4]; baseline scans) of the same molecule?
Its value is 1.53.

And the “mean SUVAUC” value ([4]; baseline scans)?
Its value is 289 ± 51 SUV·min.

What about the “increase in mean SUV90–120 from baseline to ketamine scans” value ([4]; in vivo) of the same molecule?
Its value is 10%.

And the “increase in whole brain SUVAUC following ketamine administration” value ([4]; individual subjects 6–10)?
The value was 27% and 1% (2×) and 17% and 8%.

What about the “mean SUV90–120” value ([4]; ketamine scans) of the same molecule?
The value was 1.68.

And the “mean SUVAUC” value ([4]; ketamine scans)?
The value was 321 ± 66 SUV·min.

What about the “% Change of mean K i” value ([4]; mean ketamine versus mean baseline, population IF) of the same molecule?
Its value is 1%.

What about the “% Change of mean K 1” value [4, 7] of the same molecule?
The value was 5%.

What about the “% Change of mean K i” value [4, 7] of the same molecule?
Its value is −1%.

What about the “% Change of mean k 3” value [4, 7] of the same molecule?
Its value is −9%.

What about the “% Change of mean K i” value ([4]; mean ketamine versus mean baseline, within-subject IF) of the same molecule?
The value was 10%.

What about the K i ([4]; 2T3k_VB, population IF, baseline scan) of the same molecule?
Its K i is 0.0071 min⁻¹ and 0.0150 min⁻¹ and 0.0183 min⁻¹ and 0.0114 min⁻¹ and 0.0011 min⁻¹.

And the K i ([4]; 2T3k_VB, population IF, ketamine scan)?
Its K i is 0.0152 min⁻¹ and 0.0162 min⁻¹ and 0.0167 min⁻¹ and 0.0044 min⁻¹ and 0.0010 min⁻¹.

What about the K i [4, 5] of the same molecule?
The K i was 0.0046 min⁻¹ and 0.0182 min⁻¹ and 0.0083 min⁻¹ and 0.0193 min⁻¹ and 0.0143 min⁻¹.

What about the K i [4, 6] of the same molecule?
The K i was 0.0129 min⁻¹ and 0.0118 min⁻¹ and 0.0084 min⁻¹ and 0.0124 min⁻¹ and 0.0186 min⁻¹.

And the K i ([4]; 2T3k_VB, within-subject IF, baseline scan)?
Its K i is 0.0038 min⁻¹ and 0.0170 min⁻¹ and 0.0220 min⁻¹ and 0.0200 min⁻¹ and 0.0105 min⁻¹.

And the K i ([4]; 2T3k_VB, within-subject IF, ketamine scan)?
Its K i is 0.0128 min⁻¹ and 0.0169 min⁻¹ and 0.0201 min⁻¹ and 0.0118 min⁻¹ and 0.0192 min⁻¹.

And the “% ΔKi” value ([4]; population IF)?
The value was 113% and 8% and −9% and −62% and −10%.

What about the “% ΔKi” value ([4]; single scan IF) of the same molecule?
The value was 182% and 1% and 30%.

And the “% ΔKi” value ([4]; within-subject IF)?
Its value is 237% and 0% and 83%.

And the “decrease in K1 after ketamine” value ([4]; subjects 8 and 9, respectively)?
The value was 18% and 11%.
